Experimental data reported in patent US6586442B2, “Benzofurane derivatives, their preparation process, their use as medicaments and the pharmaceutical compositions containing them” (priority 1999, dated 2003).
Read-outs that look alike come from different tables or passages of the source.

Target: human αvβ3 receptor (Homo sapiens, UniProt P05106+P06756)
Assay: Kistrin/Vitronectin Receptor (αvβ3) ELISA test
Type: binding
Description: Kistrin/Vitronectin Receptor (αvβ3) ELISA Test Protocol:
96-well MaxiSorp plates are coated overnight at […] with 100 μl of Kistrin at 1 μg/ml (dilution in coating buffer: 0.05M (carbonate)/NaOH pH 9.6. The next day, the wells are emptied and the ligands (kistrin) are then fixed (fixation buffers: PBS containing 0.5% BSA (pH=7.4)) for 1 hour at ambient temperature under gentle agitation of 125 rpm. The wells are washed six times (washing buffer: PBS containing 0.05% Tween 20 (pH 7.7) then the following is added per well and in this order:
40 μl of incubation buffer
10 μl of the dilution of the product to be tested (the products are diluted in a 50:50 DMSO/water mixture)
50 μl of human αvβ3 receptor (cf Pytel et al. Methods Enzymol. (1987) 144 (Dilution in incubation buffer, adapted according to the batch of receptor and according to the ligand). The ligand, the αvβ3 receptor and the products to be studied are incubated for 3 hours at ambient temperature with gentle agitation of 125 rpm.
The wells are again washed six times, then incubated for 2 hours at ambient temperature with gentle agitation of 125 rpm, in the presence of 100 μl of anti-receptor antibody coupled to a peroxidase (The 4B12-HRP antibody is diluted in incubation buffer (50 mM TRIS pH 7.4; 0.5% BSA; 0.05% Tween 20; 1 mM MnCl2; 50 μM CaCl2; 50 μM MgCl2; 100 mM NaCl). The dilution is to be adapted according to the batch of receptor.
The wells are then washed six times before measurement of the ligand-receptor bond is carried out using a peroxidase developer kit (TBM Microwell Peroxidase Substrate System Kirkegaard; Ref cat 50-76-00).
This kit contains a flask A of substrate (3,3′,5,5′-tetramethylebenzidine at 0.4 g/l) and a flask B (H2O2 to 0.02% in Citrate/Citric acid). Extemporaneously, one volume of A is mixed with one volume of B, then the reaction mixture is distributed at a rate of 100 μl/wells.
The enzymatic reaction develops between 6 to 10 minutes for Kistrin/αvβ3 then its development is stopped by the addition of 100 μl of 1M phosphoric acid. The optical density is determined at 450 nm.
Expression of the results
The following curve is plotted: the bond percentage as a function of the logarithm of each concentration of the tested product.
For each product IC50 is determined according to the following formula: IC50=(B0+Bmin)/2
B0=Maximum bond in the absence of any product
Bmin=Minimum bond in the presence of the highest concentration of the product.

[1] = Kistrin-coated plates, human αvβ3 receptor, 3 hours at ambient temperature, OD 450 nm, read-out: K/VnR IC50

human αvβ3 receptor, sequence (P06756 31-889 limits assumed): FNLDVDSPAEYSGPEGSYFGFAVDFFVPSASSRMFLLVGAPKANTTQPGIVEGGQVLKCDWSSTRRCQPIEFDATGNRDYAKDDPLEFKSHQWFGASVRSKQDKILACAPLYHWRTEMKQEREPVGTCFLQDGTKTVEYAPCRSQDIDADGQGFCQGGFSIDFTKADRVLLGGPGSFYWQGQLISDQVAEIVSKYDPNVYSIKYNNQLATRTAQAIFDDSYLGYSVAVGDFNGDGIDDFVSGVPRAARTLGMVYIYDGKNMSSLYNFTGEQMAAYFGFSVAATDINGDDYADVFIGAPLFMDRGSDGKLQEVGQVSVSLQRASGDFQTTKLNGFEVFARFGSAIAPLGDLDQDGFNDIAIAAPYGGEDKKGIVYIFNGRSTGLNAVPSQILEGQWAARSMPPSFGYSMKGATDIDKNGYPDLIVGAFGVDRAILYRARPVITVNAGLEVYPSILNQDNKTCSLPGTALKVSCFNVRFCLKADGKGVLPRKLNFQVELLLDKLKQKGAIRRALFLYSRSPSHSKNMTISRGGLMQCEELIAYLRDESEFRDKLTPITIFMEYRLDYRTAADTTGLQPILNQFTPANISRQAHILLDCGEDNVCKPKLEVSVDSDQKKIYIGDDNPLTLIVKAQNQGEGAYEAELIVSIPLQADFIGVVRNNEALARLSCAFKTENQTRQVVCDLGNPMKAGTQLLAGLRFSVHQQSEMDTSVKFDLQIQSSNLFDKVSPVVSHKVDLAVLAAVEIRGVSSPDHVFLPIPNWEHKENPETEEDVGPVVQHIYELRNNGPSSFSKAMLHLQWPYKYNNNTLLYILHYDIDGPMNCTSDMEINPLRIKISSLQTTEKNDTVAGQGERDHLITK
human αvβ3 receptor, sequence (P06756 891-1048 limits assumed): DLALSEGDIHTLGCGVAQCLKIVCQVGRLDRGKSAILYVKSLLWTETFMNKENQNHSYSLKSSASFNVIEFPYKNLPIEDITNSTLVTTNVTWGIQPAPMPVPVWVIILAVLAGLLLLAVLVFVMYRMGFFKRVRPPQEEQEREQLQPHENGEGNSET
human αvβ3 receptor, sequence (P05106 27-788): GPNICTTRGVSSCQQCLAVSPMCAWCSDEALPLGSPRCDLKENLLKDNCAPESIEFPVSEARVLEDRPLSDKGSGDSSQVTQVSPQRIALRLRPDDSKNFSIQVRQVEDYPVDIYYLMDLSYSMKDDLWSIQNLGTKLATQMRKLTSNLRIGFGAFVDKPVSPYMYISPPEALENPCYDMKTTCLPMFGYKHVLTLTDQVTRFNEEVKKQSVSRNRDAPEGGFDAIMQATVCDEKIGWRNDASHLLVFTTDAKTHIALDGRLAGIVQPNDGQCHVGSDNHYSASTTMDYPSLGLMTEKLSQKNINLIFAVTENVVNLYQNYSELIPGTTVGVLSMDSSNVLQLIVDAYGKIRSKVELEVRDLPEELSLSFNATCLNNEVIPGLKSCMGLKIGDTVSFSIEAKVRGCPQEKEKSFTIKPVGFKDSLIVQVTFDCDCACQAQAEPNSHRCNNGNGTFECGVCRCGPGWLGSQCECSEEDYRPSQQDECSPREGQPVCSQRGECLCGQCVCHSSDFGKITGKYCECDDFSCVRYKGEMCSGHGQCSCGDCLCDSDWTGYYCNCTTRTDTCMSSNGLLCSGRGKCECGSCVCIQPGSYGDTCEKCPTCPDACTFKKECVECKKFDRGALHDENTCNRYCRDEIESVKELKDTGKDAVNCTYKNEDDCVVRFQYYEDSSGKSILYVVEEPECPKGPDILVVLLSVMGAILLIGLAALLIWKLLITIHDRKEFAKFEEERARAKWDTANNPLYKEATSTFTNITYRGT

Row | IC50 [1] [nM] | Structure (SMILES) | IC50 [nM]
1 | 9 | O=C(CCc1ccc2oc(CC(NC(=O)OCc3ccccc3)C(=O)O)cc2c1)NC1=NCCCN1 (stereo not drawn) [Example 1, 5-[3-oxo-3-[(1,4,5,6-tetrahydro-2-pyrimidinyl)amino)propyl]-α-[[(phenylmethoxy)carbonyl]-amino]-2-benzofuranepropanoic acid] | 
2 | 45 | O=C(CCc1ccc2oc(CC(NC(=O)OCC34CC5CC(CC(C5)C3)C4)C(=O)O)cc2c1)NC1=NCCCN1 (stereo not drawn) [Example 5, Mono(trifluoroacetate) of 5-[3-oxo-3-[(1,4,5,6-tetrahydro-2-pyrimidinyl)amino]propyl]-α-[[[(tricyclo[3.3.1.1^3,7]dec-1-yl)methoxy]carbonyl]amino]-2-benzofuranpropanoic acid] | 
3 | 65 | O=C(CCc1ccc2oc(CC(NS(=O)(=O)NC(=O)OCC34CC5CC(CC(C5)C3)C4)C(=O)O)cc2c1)NC1=NCCCN1 (stereo not drawn) [Example 6, 5-[3-oxo-3-[(1,4,5,6-tetrahydro-2-pyrimidinyl)amino]-propyl]-α-[[[[[(tricyclo [2.3.1.1^3,7]dec-1-yl)methoxy]-carbonyl]amino]sulphonyl]amino]-2-benzofuranpropanoic acid] | 
4 | 10 | O=C(CCc1ccc2oc(CC(NS(=O)(=O)NC(=O)OCc3ccccc3)C(=O)O)cc2c1)NC1=NCCCN1 (centres unmarked) [Example 7] | 
5 | 8.7 | O=C(CCc1ccc2oc(CC(NS(=O)(=O)NCc3ccccc3)C(=O)O)cc2c1)NC1=NCCCN1 (centres unmarked) [Example 8, Mono(trifluoroacetate) ofα-[[[(phenylmethyl)-amino]sulphonyl]amino]-5-[3-oxo-3-[(1,4,5,6-tetrahydro-2-pyrimidinyl)amino]propyl]-2-benzofuranpropanoic acid] | 
6 | 15 | CC(C)(C)c1ccc(S(=O)(=O)NC(Cc2cc3cc(CCC(=O)NC4=NCCCN4)ccc3o2)C(=O)O)cc1 (stereo not drawn) [Example 9, α-[[[4-(1,1-dimethylethyl)phenyl]sulphonyl]amino]-5-(3-oxo-3-[(1,4,5,6-tetrahydro-2-pyrimidinyl)amino]propyl]-2-benzofuranpropanoic acid] | 
7 | 9.1 | CC(C)c1ccc(S(=O)(=O)NC(Cc2cc3cc(CCC(=O)NC4=NCCCN4)ccc3o2)C(=O)O)cc1 (stereo not drawn) [Example 10, α-[[[4-(1-methylethyl)phenyl]sulphonyl]amino]-5-(3-oxo-3-[(1,4,5,6-tetrahydro-2-pyrimidinyl)amino]propyl]-2-benzofuranpropanoic acid] | 
8 | 5.7 | CCCS(=O)(=O)NC(Cc1cc2cc(CCC(=O)NC3=NCCCN3)ccc2o1)C(=O)O (centres unmarked) [Example 11] | 
9 | 6.7 | CS(=O)(=O)NC(Cc1cc2cc(CCC(=O)NC3=NCCCN3)ccc2o1)C(=O)O (centres unmarked) [Example 12] | 
10 | 5.5 | O=C(CCc1ccc2oc(CC(NS(=O)(=O)c3cccc4ccccc34)C(=O)O)cc2c1)NC1=NCCCN1 (stereo not drawn) [Example 13, α-[(1-naphthalenylsulphonyl)amino]-5-[3-oxo-3-[(1,4,5,6-tetrahydro-2-pyrimidinyl)amino]propyl]—2-benzofuranpropanoic acid] | 
11 |  | CC(C)OC(=O)C(Cc1cc2cc(CCC(=O)NC3=NCCCN3)ccc2o1)NS(=O)(=O)c1cccc2ccccc12 (centres unmarked) [Example 14] | 3700
